# Data taken from patent US20210221784A1, “COMPOUNDS AND COMPOSITIONS FOR THE TREATMENT OF PAIN” (Université de Strasbourg, priority 2018, published 2021).
# Key:
# [1] = molecular target: T1, human NPFFR1 (hNPFFR1) receptor (Homo sapiens, UniProt Q9GZQ6); assay: Human NPFFR1 evaluation using BRET biosensors in HEK-293 T cells; type: cell-based; conditions: hNPFFR1 in HEK-293 T cells, stimulated by EC80 RFRP-3, read-out: IC50 of antagonist activity
# T1 construct: expressed in transfected cells; host or cells: HEK-293 T cells, transient co-transfection
# T1 sequence (Q9GZQ6 whole entry): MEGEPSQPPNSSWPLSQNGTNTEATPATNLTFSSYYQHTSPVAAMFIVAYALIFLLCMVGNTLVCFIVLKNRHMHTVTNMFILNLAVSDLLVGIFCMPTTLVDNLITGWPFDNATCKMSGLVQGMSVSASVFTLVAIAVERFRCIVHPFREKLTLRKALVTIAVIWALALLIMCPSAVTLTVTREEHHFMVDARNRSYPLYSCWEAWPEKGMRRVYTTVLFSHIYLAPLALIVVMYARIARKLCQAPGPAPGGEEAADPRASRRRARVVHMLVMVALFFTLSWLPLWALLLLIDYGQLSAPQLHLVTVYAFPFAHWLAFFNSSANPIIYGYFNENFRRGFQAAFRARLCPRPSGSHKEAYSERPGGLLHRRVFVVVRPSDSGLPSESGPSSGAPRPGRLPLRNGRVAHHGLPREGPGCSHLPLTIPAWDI
# Procedure, shortened: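 HEK-293 T cells transiently co-expressing hNPFFR1, GαoB and a Gi-effector BRET biosensor pair; agonist read after 10 min compound alone, then antagonism after EC80 RFRP-3 for 10 min. IC50 from 20-point curves over 6 logs, duplicates in two independent experiments.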
# C57BF6/N male mice [2] = assay: Incisional pain model, Von Frey test; type: in vivo
# hNPFFR2 = molecular target: T2, hNPFFR2 (Homo sapiens, UniProt Q9Y5X5); assay: Radioligand binding competition, membranes from CHO cells expressing hNPFFR2; conditions: 0.015 nM [D-Tyr1[125I], N-MePhe3]-NPFF, 1 hr at 25° C., read-out: NPFF2-R Ki
# T2 construct: expressed in transfected cells; membranes
# T2 sequence (Q9Y5X5 whole entry): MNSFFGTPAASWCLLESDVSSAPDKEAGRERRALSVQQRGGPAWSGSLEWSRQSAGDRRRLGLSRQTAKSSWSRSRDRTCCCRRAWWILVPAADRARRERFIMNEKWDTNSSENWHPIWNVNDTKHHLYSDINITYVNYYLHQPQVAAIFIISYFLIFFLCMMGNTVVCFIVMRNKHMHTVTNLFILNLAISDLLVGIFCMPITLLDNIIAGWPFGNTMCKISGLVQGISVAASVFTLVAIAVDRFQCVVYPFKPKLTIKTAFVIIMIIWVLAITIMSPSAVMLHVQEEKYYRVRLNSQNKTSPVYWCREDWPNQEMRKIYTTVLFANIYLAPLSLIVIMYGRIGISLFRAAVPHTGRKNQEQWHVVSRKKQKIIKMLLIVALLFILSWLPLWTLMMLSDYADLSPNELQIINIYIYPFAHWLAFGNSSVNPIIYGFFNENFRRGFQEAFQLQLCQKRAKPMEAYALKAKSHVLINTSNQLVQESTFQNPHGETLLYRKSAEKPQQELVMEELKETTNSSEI
# Description: Competition experiments with membranes from CHO cells stably expressing hNPFFR1 and hNPFFR2 were performed essentially as described in Elhabazi, K., et al. Neuropharmacology, 2013. 75C, 164-171., Briefly, hNPFFR1 or hNPFFR2 membranes (5 to 10 μg of proteins) were incubated (1 hr at 25° C.; 0.25 mL total volume) with 0.015 nM [D-Tyr1[125I], N-MePhe3]-NPFF (Hartmann Analytic GmbH) in 50 mM HEPES (pH 7.4), 1 mM CaCl2, 1 mM MgCl2 and 0.1% bovine serum albumin. Non-specific binding was determined in the presence of 10 μM RFRP-3. Incubation was terminated by rapid filtration through a 96-well GF/B unifilter apparatus (Perkin Elmer Life and Analytical Sciences, Courtaboeuf, France). Unifilters were washed five times with binding buffer, then dried for 1 h at 65° C. After addition of 40 μL scintillation cocktail (Microscint-O, Perkin Elmer) per well, bound radioactivity was determined on a TopCount scintillation counter (Perkin Elmer).
# [3] = Solubility in dosing vehicle; type: physicochemical; conditions: Tween 80 (0.5%) or Kolliphor EL (10%)
# C57BF6/N male mice [4] = assay: Fentanyl-induced hyperalgesia, tail immersion test; type: in vivo; conditions: for Hyperalgesia index (HI) d1 to d4: 1j 5 mg/kg p.o. or vehicle 35 min before fentanyl 4×60 μg/kg s.c.
# C57BF6/N male mice [5] = assay: Morphine-induced hyperalgesia and tolerance, tail immersion test; type: in vivo
structure (smiles),measurement,setting,value
"Nc1ccc(-c2cccc(Cl)c2Cl)c(N)n1 [Compound 1j, 3-(2,3-dichlorophenyl)pyridine-2,6-diamine]",IC50,[1],100 to 500 nM
same,"mechanical allodynia after paw incision (allodynia index d1-d6), drug alone","C57BF6/N male mice [2]; morphine 2.5 mg/kg sc. alone or 1j 5 mg/kg po alone, FIG. 3B",slightly attenuated but not significantly the mechanical allodynia
same,"mechanical allodynia after paw incision (allodynia index d1-d6), pre-treatment before morphine","C57BF6/N male mice [2]; mouse, in vivo",significantly enhanced morphine effect at preventing the mechanical allodynia
same,Ki,hNPFFR2,2000 nM
same,solubility in vehicle (Kolliphor EL vs Tween 80),[3],better solubility in Kolliphor EL
same,fentanyl hyperalgesia (hyperalgesia index d1 to d4),"C57BF6/N male mice [4]; 5 mg/kg sc. 20 min before fentanyl 4×60 μg/kg sc., FIG. 6B",significant anti-hyperalgesic effect
same,"development of hyperalgesia induced by fentanyl, dose effect","C57BF6/N male mice [4]; 0.2, 1 and 5 mg/kg, sc, 20 min before fentanyl, FIG. 1E, F",dose-dependently prevented
same,analgesic effect of fentanyl (AUC),"C57BF6/N male mice [4]; 1j 5 mg/kg p.o. in Kolliphor EL or vehicle before fentanyl 4×60 μg/kg s.c., FIG. 1C",11.4±3
same,ED50,"C57BF6/N male mice [4]; Mus musculus, sc, doses 0.2, 1 and 5 mg/kg, FIG. 1E, read-out: ED50, prevention of fentanyl-induced hyperalgesia",~0.5 mg/kg
same,effect of compound alone on basal nociceptive response,"C57BF6/N male mice [4]; mice, tail immersion 48° C., FIG. 1A",did not have any effect
same,Hyperalgesia index (HI) d1 to d4,C57BF6/N male mice [4]; vehicle Kolliphor EL,−1.8±1.2
same,Hyperalgesia index (HI) d1 to d4,C57BF6/N male mice [4]; vehicle tween 80,2.2±0.3
same,Hyperalgesia index (HI) d1 to d7,"C57BF6/N male mice [5]; daily morphine 10 mg/kg s.c., 1j 5 mg/kg oral or vehicle before morphine, FIG. 2B",0.1±3
same,"morphine analgesia at day 0, effect of co-administration","C57BF6/N male mice [5]; mouse, in vivo",not significantly modified
same,peak of analgesia at day 0,"C57BF6/N male mice [5]; mouse, in vivo",19±0.8
same,peak of analgesia at day 8,"C57BF6/N male mice [5]; mouse, in vivo",14±0.9
